Molecules are shown by their SMILES. A value given as a limit tells only on which side of the number the result lay.

The target in the test is recombinant human TrkA (Homo sapiens (Human), UniProt P04629). As to the kind of experiment: TrkA Kinase Binding Assay (LanthaScreen Eu). The following applies: averaged IC50; read-out: TrkA Enzyme IC50. How it is done: TrkA binding activity was determined in a TrkA LanthaScreen™ Eu Kinase Binding Assay. 5 nM His-tagged recombinant human TrkA (6HIS tagged cytoplasmic domain from Invitrogen, Catalog No. PV3144) was incubated with 4 nM Alexa-Fluor® Tracer 236 (Invitrogen Cat. No. PV5592), 2 nM biotinylated anti-His (Invitrogen Cat. No. PV6090), and 2 nM europium-labeled Streptavidin (Invitrogen Cat. No. PV5899), in buffer (25 mM MOPS, pH 7.5, 5 mM MgCl2, 0.005% Triton X-100). Three fold serial dilutions of compounds of the invention in DMSO were added to a final percentage of 2% DMSO. After 60-minute incubation at 22° C., the reaction was measured using the EnVision mutlimode plate reader (PerkinElmer) via TR-FRET dual wavelength detection at […]. The percent of control was calculated using a ratiometric emission factor. The IC50 values were determined by fitting a four parameter model to the percent of control data.
Chain of recombinant human TrkA (P04629 440-796): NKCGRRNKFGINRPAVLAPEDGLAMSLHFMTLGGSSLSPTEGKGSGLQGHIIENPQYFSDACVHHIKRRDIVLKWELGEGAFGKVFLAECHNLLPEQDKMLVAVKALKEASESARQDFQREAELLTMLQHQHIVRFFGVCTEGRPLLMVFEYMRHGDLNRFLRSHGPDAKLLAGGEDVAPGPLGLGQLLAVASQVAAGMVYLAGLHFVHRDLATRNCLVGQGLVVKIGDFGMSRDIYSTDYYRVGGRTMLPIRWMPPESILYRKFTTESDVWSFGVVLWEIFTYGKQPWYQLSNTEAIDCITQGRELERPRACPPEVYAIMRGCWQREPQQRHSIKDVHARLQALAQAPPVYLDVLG
Table A provides averaged IC50 values for compounds of the invention when tested in the assay of Example A, where A represents an averaged IC50 value <100 nM; B represents an averaged IC50 value from 100 to 1,000 nM, and C represents an averaged IC50 value between >1,000 nM and 3,000 nM.

With `Cc1ncc(-c2nn(-c3ccccc3)c(NC(=O)N[C@@H]3c4ccccc4C4(CC4)[C@H]3O)c2C)cn1` (relative stereo) [Example 56, 1-(trans-2′-hydroxy-2′,3′-dihydrospiro[cyclopropane-1,1′-inden]-3′-yl)-3-(4-methyl-3-(2-methylpyrimidin-5-yl)-1-phenyl-1H-pyrazol-5-yl)urea], the IC50 (commonly the concentration at which inhibition is half-maximal) is < 100 nM.

Turning to `COc1ncc(-c2nn(-c3ccccc3)c(NC(=O)N[C@@H]3c4ccccc4C4(CC4)[C@H]3O)c2C)cn1` (relative stereo) [Example 57, 1-(trans-2′-hydroxy-2′,3′-dihydrospiro[cyclopropane-1,1′-inden]-3′-yl)-3-(3-(2-methoxypyrimidin-5-yl)-4-methyl-1-phenyl-1H-pyrazol-5-yl)urea], the IC50 was < 100 nM.

Take `Cc1c(-c2cnn(C)c2)nn(-c2ccccc2)c1NC(=O)N[C@@H]1c2cc(F)c(F)cc2C2(CC2)[C@H]1O` (relative stereo) [Example 58, 1-(trans-5′,6′-difluoro-2′-hydroxy-2′,3′-dihydrospiro[cyclopropane-1,1′-inden]-3′-yl)-3-(1′,4-dimethyl-1-phenyl-1H, 1′H-[3,4′-bipyrazol]-5-yl)urea]: the half-inhibitory concentration (IC50) was < 100 nM.

In the case of `COc1nn(-c2ccccc2)c(NC(=O)N[C@@H]2c3cc(F)c(F)cc3C3(CC3)[C@H]2O)c1C` (relative stereo) [Example 62, 1-(trans-5′,6′-difluoro-2′-hydroxy-2′,3′-dihydrospiro[cyclo-propane-1,1′-inden]-3′-yl)-3-(3-methoxy-4-methyl-1-phenyl-1H-pyrazol-5-yl)urea], the IC50 was < 100 nM.

Regarding `Cc1c(-c2cnn(C)c2)nn(-c2ccccc2)c1NC(=O)N[C@@H]1c2cc(F)ccc2C2(CC2)[C@H]1O` (relative stereo) [Example 63, 1-(1′,4-dimethyl-1-phenyl-1H1′H-[3,4′-bipyrazol]-5-yl)-3-(trans-5′-fluoro-2′-hydroxy-2′,3′-dihydrospiro[cyclopropane-1,1′-inden]-3′-yl)urea], the IC50 is < 100 nM.

Regarding `Cc1c(-c2cnn(C)c2)nn(-c2ccccc2)c1NC(=O)N[C@@H]1c2ccc(F)cc2C2(CC2)[C@H]1O` (relative stereo) [Example 64, 1-(1′,4-dimethyl-1-phenyl-1H,1′H-[3,4′-bipyrazol]-5-yl)-3-(trans-6′-fluoro-2′-hydroxy-2′,3′-dihydrospiro[cyclopropane-1,1′-inden]-3′-yl)urea], the IC50 is < 100 nM.

In the case of `Cc1c(NC(=O)N[C@@H]2c3ccccc3C(C)(C)C[C@H]2O)n(-c2ccccc2)[nH]c1=O` (relative stereo) [Example 95, 1-(trans-2-hydroxy-4,4-dimethyl-1,2,3,4-tetrahydronaphthalen-1-yl)-3-(4-methyl-5-oxo-2-phenyl-2,5-dihydro-1H-pyrazol-3-yl)urea], the IC50 was < 100 nM.

As to `Cc1nn(-c2ccccc2)c(NC(=O)N[C@@H]2c3cc(C(N)=O)ccc3C(C)(C)C[C@H]2O)c1C` (relative stereo) [Example 98, trans-8-(3-(3,4-dimethyl-1-phenyl-1H-pyrazol-5-yl)ureido)-7-hydroxy-5,5-dimethyl-5,6,7,8-tetrahydronaphthalene-2-carboxamide], the IC50 lay in the range of 1000 to 3000 nM.

For the molecule `COC(=O)c1ccc2c(c1)[C@@H](NC(=O)Nc1c(C)c(C)nn1-c1ccccc1)[C@H](O)CC2(C)C` (relative stereo) [Example 99, trans-methyl 8-(3-(3,4-dimethyl-1-phenyl-1H-pyrazol-5-yl)ureido)-7-hydroxy-5,5-dimethyl-5,6,7,8-tetrahydronaphthalene-2-carboxylate], the IC50 was < 100 nM.

Take `Cc1c(OCC2CCN(C)CC2)nn(-c2ccccc2)c1NC(=O)N[C@@H]1c2ccccc2CC[C@H]1O` (relative stereo) [Example 123, 1-(trans-2-hydroxy-1,2,3,4-tetrahydro-naphthalen-1-yl)-3-(4-methyl-3-((1-methylpiperidin-4-yl)methoxy)-1-phenyl-1H-pyrazol-5-yl)urea]: the IC50 is < 100 nM.

(Values after US10889589B2, “Bicyclic urea, thiourea, guanidine and cyanoguanidine compounds useful for the treatment of pain” (Array BioPharma Inc., priority 2012, dated 2021).)
